In patent US6677371B1, “4-oxybenzopyran derivative” (Nissan Chemical Industries, Ltd., priority 1999, dated 2004):

`CC(=O)Nc1cc2c(cc1[N+](=O)[O-])OC(C)(C)[C@@H](O)[C@@H]2OCCc1ccccc1` (relative stereo) [Synthesis example 2, Trans-6-acetylamino-3,4-dihydro-2,2-dimethyl-7-nitro-4-(2-phenylethoxy)-2H-1-benzopyran-3-ol] gave a melting point of 123.5 to 127 °C.
